Reference: patent publication US10905704B2, “Agents and methods using thereof for the prevention and treatment of stem cell muscle disorders” (ECOLE POLYTECHNIQUE FEDERALE DE LAUSANNE (EPFL), priority 2015, dated 2021)

Tested on: C2C12 cells
Experiment: Western blot of UPRmt, prohibitins and cell cycle proteins in TAP-treated C2C12 cells
Assay type: cell-based, mouse
Settings: 50 μg/ml TAP, FIG. 7
Description: Western blotting. C2C12 cells were lysed in a buffer composed of 50 mM Tris, 150 mM KCl, EDTA 1 mM, NP40 1%, nicotinamide 5 mM, sodium butyrate 1 mM and protease inhibitors cocktail (Roche) at pH 7,4. Proteins were separated by SDS-PAGE and transferred onto nitrocellulose membranes. Blocking and antibody incubations were performed in 3% BSA. The following primary antibodies were used: anti-cleavage caspase 3 (Cell Signalling); Anti-γH2AX (Millipore); anti-β-actin (Sigma). All secondary antibodies were from Jackson Immunoresearch. Antibody detection reactions were developed by enhanced chemiluminescence (Advansta, Calif., USA) using x-ray films or imaged using the c300 imaging system (Azure Biosystems). The following primary antibodies were used: anti-HSP60 (Enzo Life Science); anti-PHB (Biolegend); anti-PHB2 (Santa Cruz); anti-CKD4 (Novus biologicals); anti-CCND1 (Santa Cruz); anti-CCND3 (Santa Cruz); anti-HSP90 (BD Biosciences); HSP70 (Abcam); anti-MT-CO1 (Bio legend); anti-ATP5A (Bio legend); anti-Grp78 (Abcam); and anti-CLPP (Sigma).

**Q.** With `CS(=O)(=O)c1ccc([C@@H](O)[C@@H](CO)NC(=O)C(Cl)Cl)cc1` [thiamphenicol] as the compound, how does the UPRmt induction read?
**A.** Its UPRmt induction is “UPR^mt induction”.

**Q.** And the “cell cycle gene expression” value?
**A.** Its value is “induced”.

**Q.** And the prohibitins expression?
**A.** Its prohibitins expression is “induced”.
